Measurements from patent US20220177456A1, “COMPOUNDS, COMPOSITIONS AND METHODS” (Denali Therapeutics Inc., priority 2019, published 2022).

System: ISR pathway (ATF4 translation), H4 ATF4-NLuc (clone 17) cell line
Assay: ATF4 Nano Luciferase reporter integrated stress response (ISR) assay in H4 ATF4-NLuc cells
Format: cell-based
Settings: human H4 neuroglioma ATF4-NLuc cells; compound 30 minutes, then 50 μm sodium arsenite for 6 hours; luminescence readout
Excerpt: Cellular stress leads to activation of the integrated stress response pathway through one of four eukaryotic initiation factor 2α kinases and halts global translation, while allowing for the translation of select transcripts like ATF4 (activating transcription factor 4) that are important for the response to cellular stress. During normal conditions, small open reading frames (ORFs) in the 5′ UTR of ATF4 occupy the ribosome and prevent translation of the coding sequence of ATF4. During stress conditions however, the ribosome scans past these upstream ORFs and preferentially begins translation at the coding sequence of ATF4. In this way, the translation, and thus protein level of ATF4 is a readout of ISR pathway activation. Thus, a fusion of the uORFs and the beginning of the coding sequence of ATF to a common cellular reporter like nano-luciferase allows for a sensitive and high-throughput readout of ISR pathway activity.
Compounds as provided herein were tested in the following assay. The ATF4 Nano Luciferase reporter was constructed by fusing the human full length 5′ untranslated region (5′-UTR) and a small portion of the coding sequence of the ATF4 gene upstream of the Nano Luciferase (NLuc) coding sequence lacking it's start codon. Specifically, nucleotides +1 through +364 (relative to the transcriptional start site) of ATF4 transcript variant 2 (NCBI NM_182810.2) flanked 5′ by EcoRI and 3′ by BamHI restriction enzyme sites were synthesized and cloned into the EcoRI/BamHI cloning sites of pLVX-EF1a-IRES-Puro lentivirus vector (Clontech). Lentiviral particles were produced with Lenti-X single shots (VSV-G, Clontech) according to the manufacturer's instructions and used to transduce a human H4 neuroglioma cell line (ATCC HT1B-148). H4 cells were selected with 1.25 μg/mL Puromycin, and clonal cell lines generated by limiting dilution. We utilized this cell line to generate an integrated stress response (ISR) assay to evaluate the activity of ISR pathway inhibitors via luminescence readout. The H4 ATF4-NLuc (clone 17) cell line is plated at a density of […] cells in 96-well or 384-well respectively in DMEM +10% fetal bovine serum. 24-hours later test compounds diluted in dimethyl sulfoxide (DMSO) are added for 30 minutes at 37° C., followed by ISR pathway activation with 50 μm sodium arsenite aqueous solution for 6 additional hours. Nano Glo luciferase reagent (N1150, Promega) is added according to manufacturer instructions and the luminescence signal (corresponding to the level of ATF4 translation and thus ISR pathway activation) is read with a standard plate reader with luminescence detection capabilities.
In the tables below, activity of the tested compounds is provided, and in Table 3 as follows: +++=0.003 μM<IC50<1 μM; ++=IC50 1-10 μM; +=IC50>10 μM.

IC50 [nM] | SMILES
3 to 1000 | O=C(COc1ccc(Cl)c(F)c1)N[C@@H]1CC[C@@H](C(=O)N2CCC(OC(F)(F)F)C2)OC1 (stereo partly drawn) [Example 31, 2-(4-chloro-3-fluoro-phenoxy)-N-[(3R,6S)-6-[3-(trifluoromethoxy)pyrrolidine-1-carbonyl]tetrahydropyran-3-yl]acetamide]
3 to 1000 | C[C@H](NC(=O)[C@@H]1CC[C@@H](NC(=O)COc2ccc(Cl)cc2)CO1)c1ccc(Cl)cc1 [Example 18, (2S,5R)-5-[[2-(4-chlorophenoxy)acetyl]amino]-N-[(1S)-1-(4-chlorophenyl)ethyl] tetrahydropyran-2-carboxamide]
3 to 1000 | O=C(COc1ccc(Cl)cc1)N[C@@H]1CC[C@@H](C(=O)NCc2ccc(C(F)(F)F)cn2)OC1 [Example 27, (2S,5R)-5-[[2-(4-chlorophenoxy)acetyl]amino]-N-[[5-(trifluoromethyl)-2-pyridyl]methyl] tetrahydropyran-2-carboxamide]
3 to 1000 | O=C(COc1ccc(Cl)cc1)N[C@@H]1CC[C@@H](C(=O)NCc2ccc(C(F)(F)F)cc2)OC1 [Example 20, (2S,5R)-5-[[2-(4-chlorophenoxy)acetyl]amino]-N-[[4-(trifluoromethyl)phenyl]methyl] tetrahydropyran-2-carboxamide]
3 to 1000 | O=C(COc1ccc(Cl)cc1)N[C@@H]1CC[C@@H](C(=O)N2CCc3cc(Cl)ccc3C2)OC1 [Example 22, 2-(4-chlorophenoxy)-N-[(3R,6S)-6-(6-chloro-3,4-dihydro-1H-isoquinoline-2-carbonyl)tetrahydropyran-3-yl]acetamide]
3 to 1000 | O=C(N[C@H]1C[C@@H](COC(F)(F)F)C1)[C@@H]1CC[C@@H](n2cnc(-c3ccc(Cl)c(F)c3)c2)CO1 [Example 24, (2S,5R)-5-[4-(4-chloro-3-fluoro-phenyl)imidazol-1-yl]-N-[3-cis-(trifluoromethoxymethyl)cyclobutyl] tetrahydropyran-2-carboxamide]
3 to 1000 | CN(Cc1ccc(Cl)cc1)C(=O)[C@@H]1CC[C@@H](NC(=O)COc2ccc(Cl)cc2)CO1 [Example 19, (2S,5R)-5-[[2-(4-chlorophenoxy)acetyl]amino]-N-[(4-chlorophenyl)methyl]-N-methyl-tetrahydropyran-2-carboxamide]
3 to 1000 | O=C(COc1ccc(Cl)cc1)N[C@@H]1CC[C@@H](C(=O)N2CCc3ccc(Cl)cc3C2)OC1 [Example 21, 2-(4-chlorophenoxy)-N-[(3R,6S)-6-(7-chloro-3,4-dihydro-1H-isoquinoline-2-carbonyl)tetrahydropyran-3-yl]acetamide]
3 to 1000 | O=C(COc1ccc(C(F)(F)F)cc1)N[C@@H]1CC[C@@H](C(=O)Nc2ccc3cc(C(F)(F)F)ccc3n2)OC1 [Example 28, (2S,5R)-5-[[2-[4-(trifluoromethyl)phenoxy]acetyl]amino]-N-[6-(trifluoromethyl)-2-quinolyl]tetrahydropyran-2-carboxamide]

Further lines, the compound ahead of its results:

SMILES | IC50 [nM]
O=C(COc1ccc(C(F)(F)F)cc1)N[C@@H]1CC[C@@H](C(=O)N2CCc3nc(C(F)(F)F)ccc3C2)OC1 [Example 10, N-[(3R,6S)-6-[2-(trifluoromethyl)-7,8-dihydro-5H-1,6-naphthyridine-6-carbonyl]tetrahydropyran-3-yl]-2-[4-(trifluoromethyl)phenoxy] acetamide] | 3 to 1000
CC1c2ccc(Cl)cc2CCN1C(=O)[C@@H]1CC[C@@H](NC(=O)COc2ccc(Cl)cc2)CO1 (stereo partly drawn) [Example 6, 2-(4-chlorophenoxy)-N-[(3R,6S)-6-(6-chloro-1-methyl-3,4-dihydro-1H-isoquinoline-2-carbonyl)tetrahydropyran-3-yl]acetamide] | 3 to 1000
O=C(COc1ccc(Cl)cc1)N[C@@H]1CC[C@@H](C(=O)NCc2cccc(Cl)c2)OC1 [Example 15, (2S,5R)-5-[[2-(4-chlorophenoxy)acetyl]amino]-N-[(3-chlorophenyl)methyl] tetrahydropyran-2-carboxamide] | 3 to 1000
O=C(COc1ccc(C(F)(F)F)cc1)N[C@@H]1CC[C@@H](C(=O)NCc2ccc(C(F)(F)F)cc2)OC1 [Example 1, (2S,5R)-5-[[2-[4-(trifluoromethyl)phenoxy]acetyl]amino]-N-[[4-(trifluoromethyl)phenyl]methyl]tetrahydropyran-2-carboxamide] | 3 to 1000
O=C(COc1ccc(C(F)(F)F)cc1)N[C@@H]1CC[C@@H](C(=O)Nc2ccc3cc(Cl)ccc3n2)OC1 [Example 2, (2S,5R)—N-(6-chloro-2-quinolyl)-5-[[2-[4-(trifluoromethyl)phenoxy]acetyl]amino]tetrahydropyran-2-carboxamide] | 3 to 1000
O=C(COc1ccc(C(F)(F)F)cc1)N[C@@H]1CC[C@@H](C(=O)N[C@H]2C[C@@H](COC(F)(F)F)C2)OC1 [Example 13, (2S,5R)-N-[3-cis-(trifluoromethoxymethyl)cyclobutyl]-5-[[2-[4-(trifluoromethyl)phenoxy]acetyl]amino]tetrahydropyran-2-carboxamide] | 3 to 1000
O=C(COc1ccc(Cl)cc1)N[C@@H]1CC[C@@H](C(=O)NCc2ccc(C(F)(F)F)nc2)OC1 [Example 16, (2S,5R)-5-[[2-(4-chlorophenoxy)acetyl]amino]-N-[[6-(trifluoromethyl)-3-pyridyl]methyl] tetrahydropyran-2-carboxamide] | 3 to 1000
O=C(COc1ccc(C(F)(F)F)cc1)N[C@@H]1CC[C@@H](C(=O)Nc2cc3ccc(Cl)cc3cn2)OC1 [Example 9, (2S,5R)-N-(7-chloro-3-isoquinolyl)-5-[[2-[4-(trifluoromethyl)phenoxy]acetyl]amino]tetrahydropyran-2-carboxamide] | 3 to 1000
O=C(COc1ccc(C(F)(F)F)cc1)N[C@@H]1CC[C@@H](C(=O)N2C[C@@H]3[C@H](C2)[C@H]3C(F)(F)F)OC1 [Example 8, N-[(3R,6S)-6-[(1r,5s)-6-(trifluoromethyl)-3-azabicyclo[3.1.0]hexane-3-carbonyl]tetrahydropyran-3-yl]-2-[4-(trifluoromethyl)phenoxy]acetamide] | 1000 to 10000
O=C(COc1ccc(C(F)(F)F)cc1)N[C@@H]1CC[C@@H](C(=O)N2Cc3ccc(C(F)(F)F)cc3C2)OC1 [Example 11, N-[(3R,6S)-6-[5-(trifluoromethyl)isoindoline-2-carbonyl]tetrahydropyran-3-yl]-2-[4-(trifluoromethyl)phenoxy] acetamide] | 3 to 1000
O=C(COc1ccc(C(F)(F)F)cc1)N[C@@H]1CC[C@@H](C(=O)N2CCc3cc(C(F)(F)F)ccc3C2)OC1 [Example 5, N-[(3R,6S)-6-[6-(trifluoromethyl)-3,4-dihydro-1H-isoquinoline-2-carbonyl]tetrahydropyran-3-yl]-2-[4-(trifluoromethyl)phenoxy] acetamide] | 3 to 1000
C[C@@H](NC(=O)[C@@H]1CC[C@@H](NC(=O)COc2ccc(Cl)cc2)CO1)c1ccc(Cl)cc1 [Example 17, (2S,5R)-5-[[2-(4-chlorophenoxy)acetyl]amino]-N-[(1R)-1-(4-chlorophenyl)ethyl] tetrahydropyran-2-carboxamide] | 3 to 1000
O=C(COc1ccc(C(F)(F)F)cc1)N[C@@H]1CC[C@@H](C(=O)NCCCOC(F)(F)F)OC1 [Example 4, (2S,5R)-N-[3-(trifluoromethoxy)propyl]-5-[[2-[4-(trifluoromethyl)phenoxy]acetyl]amino]tetrahydropyran-2-carboxamide] | 3 to 1000
O=C(COc1ccc(C(F)(F)F)cc1)N[C@@H]1CC[C@@H](C(=O)Nc2ccc3ccc(Cl)cc3n2)OC1 [Example 7, (2S,5R)-N-(7-chloro-2-quinolyl)-5-[[2-[4-(trifluoromethyl)phenoxy]acetyl]amino]tetrahydropyran-2-carboxamide] | 3 to 1000
CC1CN(C(=O)[C@@H]2CC[C@@H](NC(=O)COc3ccc(Cl)cc3)CO2)Cc2ccc(Cl)cc21 (stereo partly drawn) [Example 3, 2-(4-chlorophenoxy)-N-[(3R,6S)-6-(6-chloro-4-methyl-3,4-dihydro-1H-isoquinoline-2-carbonyl)tetrahydropyran-3-yl]acetamide] | 3 to 1000
O=C(N[C@@H]1CC[C@@H](C(=O)N[C@H]2C[C@@H](COC(F)(F)F)C2)OC1)c1ccc2cc(C(F)(F)F)ccc2n1 [Example 12, N-[(3R,6S)-6-[[3-cis-(trifluoromethoxymethyl)cyclobutyl]carbamoyl]tetrahydropyran-3-yl]-6-(trifluoromethyl) quinoline-2-carboxamide] | 3 to 1000
